Laboratory results as given in patent US20240353338A1 (priority 2023, published 2024).

System: early Delta variant of SARS-CoV-2
Format: cell-based

For `C[C@@H](OC(C)(C)C)[C@H](NC(=O)OCc1ccccc1)C(=O)N[C@@H](CC1CCCCC1)C(=O)N[C@H](C=O)C[C@@H]1CCNC1=O` [MPI8], the “antiviral effectiveness (virus growth by reverse transcriptase quantitative PCR)” value was “inhibition of virus growth”.
